These molecules were tested against T1, Angiotensin II-receptor (Rattus norvegicus, UniProt P25095) (assay: Angiotensin II-receptor bonding). Settings: not given.
T1 construct: The tissue (rats lung) is homogenised in Tris-buffer; from tissue; host or cells: rat lung homogenate (washed 20,000x g pellet)
T1 sequence (P25095 1-359): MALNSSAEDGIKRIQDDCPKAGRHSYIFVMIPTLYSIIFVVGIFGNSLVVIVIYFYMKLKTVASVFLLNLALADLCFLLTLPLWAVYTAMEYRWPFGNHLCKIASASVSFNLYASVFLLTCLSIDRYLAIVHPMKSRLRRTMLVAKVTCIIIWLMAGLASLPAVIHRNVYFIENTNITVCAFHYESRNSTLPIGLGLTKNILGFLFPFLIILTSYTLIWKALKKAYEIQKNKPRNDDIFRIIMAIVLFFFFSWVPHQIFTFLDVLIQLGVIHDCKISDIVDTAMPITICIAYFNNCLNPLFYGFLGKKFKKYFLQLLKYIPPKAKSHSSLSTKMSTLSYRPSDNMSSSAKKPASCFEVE
Type: binding
Method: Description of method: Angiotensin II-receptor bonding
The tissue (rats lung) is homogenised in Tris-buffer (50 mMol Tris, 150 mMol NaCl, 5 mMol EDTA, pH 7.40) and centrifuged twice for 20 minutes at 20,000x g. The finished pellets are resuspended in incubating buffer (50 mMol Tris, 5 mMol MgCl2, 0.2% BSA, pH 7.40) 1:75, based on the moist weight of the tissue. Each 0.1 ml of homogenate is incubated for 60 minutes at 37° C. with 50 pM [^125 I]-angiotensin II (NEN, Dreieich, FRG) with increasing concentrations of the test substance in a total volume of 0.25 ml. Incubation is ended by rapid filtration through glass fibre filter mats. The filters are each washed with 4 ml of ice cold buffer (25 mMol Tris, 2.5 mMol MgCl2, 0.1% BSA, pH 7.40). The bound radioactivity is measured using a gamma-counter. The corresponding IC50 value is obtained from the dose-activity curve.
In the test described, substances A to I show the following IC50 values: […]

Compound | IC50
CCCCc1nc2ccccc2n1Cc1ccc(NC(c2ccccc2)P(=O)(O)OCC)cc1 (stereo not drawn) [Substance I, 2-n-Butyl-1-[4-[α-(O-ethyl-phosphono)benzylamino]benzyl]benzimidazole] | 560 nM

Same assay, conditions: rats lung homogenate; 50 pM [^125 I]-angiotensin II; 60 minutes at 37° C.; pH 7.40; read-out: IC50

Compound | IC50
CCCc1nc2c(C)cccc2n1Cc1ccc(OC(C(=O)O)c2ccccc2)cc1 (stereo not drawn) [Substance A, 2-n-Propyl-4-methyl-1-[4-[(α-carboxy)benzyloxy]benzyl]benzimidazole] | 76 nM
CCCCc1nc2ccc(NC(=O)N(C)C)cc2n1Cc1ccc(OC(C(=O)O)c2ccccc2)cc1 (stereo not drawn) [Substance B, 2-n-Butyl-1-[4-[(α-carboxy)benzyloxy]benzyl]-6-dimethylaminocarbonylamino-benzimidazole] | 8 nM
CCCc1nc2c(C)cc(-c3nc4ccccc4n3C)cc2n1Cc1ccc(OC(C(=O)O)c2ccccc2)cc1 (stereo not drawn) [Substance C, 2-n-Propyl-6-(1-methyl-benzimidazol-2-yl)-4-methyl-1-[4-[(α-carboxy)benzyloxy]benzyl]benzimidazole] | 4 nM
Cc1cc(OCc2ccc(OC(C(=O)O)c3ccccc3)cc2)c2ccccc2n1 (stereo not drawn) [Substance D, 2-Methyl-4-[4'-[(α-carboxy)benzyloxy]benzyloxy]quinoline] | 2000 nM

Next, values leading:

IC50 | Compound
2000 nM | CCCCc1nc2c(C)cccc2c(=O)n1Cc1ccc(OC(C(=O)O)c2ccccc2)cc1 (stereo not drawn) [Substance E, 2-n-Butyl-8-methyl-3-[4-[(α-carboxy)benzyloxy]benzyl]-quinazolin-4-one-semihydrate]
12 nM | CCCc1nc2c(C)cc(-c3nc4ccccc4n3C)cc2n1Cc1ccc(OC(c2ccccc2)c2nnn[nH]2)cc1 (stereo not drawn) [Substance F, 2-n-Propyl-4-methyl-6-(1-methyl-benzimidazol-2-yl)-1-[4-[α-(1H-tetrazol-5-yl)benzyloxy]benzyl]benzimidazole]
830 nM | CCCCc1nc2ccc(N(C)C(=O)CC)cc2n1Cc1ccc(OC(CC(C)C)C(=O)O)cc1 (stereo not drawn) [Substance G, 2-n-Butyl-6-(N-propionyl-methylamino)-1-[4-[(1-carboxy-3-methyl)butyloxy]benzyl]benzimidazole]
27 nM | CCCCc1nc2cc(N3CCCN(Cc4ccccc4)C3=O)c(C)nc2n1Cc1ccc(OC(c2ccccc2)c2nnn[nH]2)cc1 (stereo not drawn) [Substance H, 2-n-Butyl-5-methyl-6-(3-benzyl-3,4,5,6-tetrahydro-2(1H)-pyrimidinon-1-yl)-3-[4-[α-(1H-tetrazol-5-yl)benzyloxy]benzyl]imidazo[4,5-b]pyridine]

Source: patent publication US5519138A, “Phenylalkyl derivatives, with pharmaceutical activity” (Dr. Karl Thomae GmbH, priority 1991, dated 1996)
